From patent US20260108646A1, “METHOD AND DEVICE FOR DI[…]/OR S[…]” (SCHWING TECHNOLOGIES GMBH, priority 2022, published 2026)

Experiments:
[1] = tested on: human patellar tendon allografts; conditions: in vitro study, human patellar tendon allografts [98]; cited from earlier work
[2] = tested on: Geobacillus stearothermophilus spores; assay: Validation tests for disinfection of bio-indicator spore strips SAL 10^5; assay type: cell-based; conditions: 50-55° C.
[3] = tested on: Geobacillus stearothermophilus spores; assay: Validation tests for disinfection of laboratory utensils sprinkled with spore suspension SAL 10^6; assay type: cell-based; conditions: for Biological Result #not sterile/#tested: PES in solution 4 %

## CC(=O)OO [PES, peracetic acid]
[1]
  cytotoxic and pro-inflammatory effects: neither cytotoxic nor pro-inflammatory effects
[2]; all spore strips tested at different PES concentrations and different processing times
  growth or proliferation of the spores after treatment: no growth or proliferation of the spores could be detected
[2]; test 1, PES in solution 6 %, PES in process chamber 3 g/m^3, process duration 240 min
  Biological Result #not sterile/#tested: 0/2
[2]; test 2, PES in solution 6 %, PES in process chamber 3 g/m^3, process duration 120 min
  Biological Result #not sterile/#tested: 0/1
[2]; test 3, PES in solution 6 %, PES in process chamber 1.7 g/m^3, process duration 150 min
  Biological Result #not sterile/#tested: 0/2
[2]; test 4, PES in solution 4 %, PES in process chamber 2 g/m^3, process duration 120 min
  Biological Result #not sterile/#tested: 0/1
[2]; test 5, PES in solution 4 %, PES in process chamber 1.9 g/m^3, process duration 120 min
  Biological Result #not sterile/#tested: 0/2
[2]; test 6, PES in solution 4 %, PES in process chamber 1.9 g/m^3, process duration 90 min
  Biological Result #not sterile/#tested: 0/2
[2]; test 7, PES in solution 4 %, PES in process chamber 1.9 g/m^3, process duration 60 min
  Biological Result #not sterile/#tested: 0/4
[2]; test 8, PES in solution 4 %, PES in process chamber 1.9 g/m^3, process duration 45 min
  Biological Result #not sterile/#tested: 0/1
[2]; test 9, PES in solution 4 %, PES in process chamber 1.9 g/m^3, process duration 40 min
  Biological Result #not sterile/#tested: 0/2
[2]; test 10, PES in solution 4 %, PES in process chamber 1.9 g/m^3, process duration 30 min
  Biological Result #not sterile/#tested: 0/2
[2]; test 11, PES in solution 4 %, PES in process chamber 1.9 g/m^3, process duration 20 min
  Biological Result #not sterile/#tested: 0/2
[2]; test 12, PES in solution 4 %, PES in process chamber 1.9 g/m^3, process duration 15 min
  Biological Result #not sterile/#tested: 0/1
[2]; test 13, PES in solution 4 %, PES in process chamber 1.9 g/m^3, process duration 10 min
  Biological Result #not sterile/#tested: 0/1
[2]; test 14, PES in solution 4 %, PES in process chamber 1.9 g/m^3, process duration 5 min
  Biological Result #not sterile/#tested: 0/1
[2]; test 15, PES in solution 4 %, PES in process chamber 1.7 g/m^3, process duration 20 min
  Biological Result #not sterile/#tested: 0/1
[2]; test 16, PES in solution 4 %, PES in process chamber 1.7 g/m^3, process duration 15 min
  Biological Result #not sterile/#tested: 0/1
[2]; test 17, PES in solution 4 %, PES in process chamber 1.5 g/m^3, process duration 240 min
  Biological Result #not sterile/#tested: 0/2
[2]; test 18, PES in solution 4 %, PES in process chamber 1.5 g/m^3, process duration 150 min
  Biological Result #not sterile/#tested: 0/2
[2]; test 19, PES in solution 4 %, PES in process chamber 1.3 g/m^3, process duration 20 min
  Biological Result #not sterile/#tested: 0/1
[2]; test 20, PES in solution 4 %, PES in process chamber 1.3 g/m^3, process duration 15 min
  Biological Result #not sterile/#tested: 0/1
[2]; test 21, PES in solution 4 %, PES in process chamber 0.94 g/m^3, process duration 60 min
  Biological Result #not sterile/#tested: 0/5
[2]; test 22, PES in solution 4 %, PES in process chamber 0.94 g/m^3, process duration 40 min
  Biological Result #not sterile/#tested: 0/1
[2]; test 23, PES in solution 4 %, PES in process chamber 0.94 g/m^3, process duration 30 min
  Biological Result #not sterile/#tested: 0/2
[2]; test 24, PES in solution 4 %, PES in process chamber 0.94 g/m^3, process duration 20 min
  Biological Result #not sterile/#tested: 0/2
[2]; test 25, PES in solution 4 %, PES in process chamber 0.94 g/m^3, process duration 15 min
  Biological Result #not sterile/#tested: 0/1
[2]; test 26, PES in solution 4 %, PES in process chamber 0.94 g/m^3, process duration 10 min
  Biological Result #not sterile/#tested: 0/1
[2]; test 27, PES in solution 4 %, PES in process chamber 0.94 g/m^3, process duration 5 min
  Biological Result #not sterile/#tested: 0/1
[2]; test 28, PES in solution 4 %, PES in process chamber 0.47 g/m^3, process duration 60 min
  Biological Result #not sterile/#tested: 0/1
[2]; test 29, PES in solution 4 %, PES in process chamber 0.47 g/m^3, process duration 30 min
  Biological Result #not sterile/#tested: 0/1
[2]; test 30, PES in solution 4 %, PES in process chamber 0.47 g/m^3, process duration 15 min
  Biological Result #not sterile/#tested: 0/1
[2]; test 31, PES in solution 4 %, PES in process chamber 0.47 g/m^3, process duration 10 min
  Biological Result #not sterile/#tested: 0/1
[2]; test 32, PES in solution 4 %, PES in process chamber 0.47 g/m^3, process duration 5 min
  Biological Result #not sterile/#tested: 0/1
[3]; test 5, PES in process chamber 1.9 g/m^3, process duration 120 min
  Biological Result #not sterile/#tested: 0/4
[3]; test 7, PES in process chamber 1.9 g/m^3, process duration 60 min
  Biological Result #not sterile/#tested: 0/4
[3]; test 8, PES in process chamber 1.9 g/m^3, process duration 45 min
  Biological Result #not sterile/#tested: 0/4
[3]; test 12, PES in process chamber 1.9 g/m^3, process duration 15 min
  Biological Result #not sterile/#tested: 0/4
[3]; test 13, PES in process chamber 1.9 g/m^3, process duration 10 min
  Biological Result #not sterile/#tested: 0/4
[3]; test 14, PES in process chamber 1.9 g/m^3, process duration 5 min
  Biological Result #not sterile/#tested: 0/4
[3]; test 15, PES in process chamber 1.7 g/m^3, process duration 20 min
  Biological Result #not sterile/#tested: 0/4
[3]; test 16, PES in process chamber 1.7 g/m^3, process duration 15 min
  Biological Result #not sterile/#tested: 0/4
[3]; test 19, PES in process chamber 1.3 g/m^3, process duration 20 min
  Biological Result #not sterile/#tested: 0/4
[3]; test 20, PES in process chamber 1.3 g/m^3, process duration 15 min
  Biological Result #not sterile/#tested: 0/4
[3]; test 21, PES in process chamber 0.94 g/m^3, process duration 60 min
  Biological Result #not sterile/#tested: 0/4
[3]; test 22, PES in process chamber 0.94 g/m^3, process duration 40 min
  Biological Result #not sterile/#tested: 0/4
[3]; test 23, PES in process chamber 0.94 g/m^3, process duration 30 min, not sterile: pipette
  Biological Result #not sterile/#tested: (pipette) 1/8
[3]; test 24, PES in process chamber 0.94 g/m^3, process duration 20 min
  Biological Result #not sterile/#tested: 0/8
[3]; test 25, PES in process chamber 0.94 g/m^3, process duration 15 min, not sterile: pipette
  Biological Result #not sterile/#tested: (pipette) 1/4
[3]; test 26, PES in process chamber 0.94 g/m^3, process duration 10 min
  Biological Result #not sterile/#tested: 0/4
[3]; test 27, PES in process chamber 0.94 g/m^3, process duration 5 min, not sterile: pipette
  Biological Result #not sterile/#tested: (pipette) 1/4
[3]; test 28, PES in process chamber 0.47 g/m^3, process duration 60 min
  Biological Result #not sterile/#tested: 0/4
[3]; test 29, PES in process chamber 0.47 g/m^3, process duration 30 min
  Biological Result #not sterile/#tested: 0/4
[3]; test 30, PES in process chamber 0.47 g/m^3, process duration 15 min, not sterile: Eppi
  Biological Result #not sterile/#tested: (Eppi) 1/4
[3]; test 31, PES in process chamber 0.47 g/m^3, process duration 10 min, not sterile: pipette
  Biological Result #not sterile/#tested: (pipette) 1/4
[3]; test 32, PES in process chamber 0.47 g/m^3, process duration 5 min, not sterile: mask, pipette
  Biological Result #not sterile/#tested: (mask, pipette) 2/4
[3]; various tests, relatively low PES concentration in the process chamber and short process duration
  spore growth after seven days in nutrient solution: spore growth was observed after seven days
